How the values were obtained:
[1] = test system: fecal microbial community; assay: SHIME in vitro gastrointestinal model: short chain fatty acid (A, P, B) ratios; assay type: cell-based, human; details: for A ratio (A/(A + P + B)), Ascending colon / A ratio, Descending colon / A ratio, Transverse colon / B ratio, Ascending colon / B ratio, Descending colon / B ratio, Transverse colon / P ratio, Ascending colon / P ratio, Descending colon / P ratio, Transverse colon: TWINSHIME
Source text: In Vitro Gastrointestinal Model—the Simulator of the Human Intestinal Microbial Ecosystem (SHIME)
The reactor setup was adapted from the SHIME, representing the gastrointestinal tract of the adult human, as described by Molly et al. (Molly, Woestyne et al. 1993). The SHIME consists of a succession of five reactors simulating the different parts of the human gastrointestinal tract. The first two reactors are of the fill-and-draw principle to simulate different steps in food uptake and digestion, with peristaltic pumps adding a defined amount of SHIME feed (140 mL 3×/day) and pancreatic and bile liquid (60 mL 3×/day), respectively to the stomach (V1) and duodenum (V2) compartment and emptying the respective reactors after specified intervals. The last three compartments are continuously stirred reactors with constant volume and pH control. Retention time and pH of the different vessels are chosen in order to resemble in vivo conditions in the different parts of the gastrointestinal tract. The overall residence time of the last three vessels, simulating the large intestine, is 76 h. Upon inoculation with fecal microbiota, these reactors simulate the ascending (V3), transverse (V4) and descending (V5) colon. Inoculum preparation, retention time, pH, temperature settings and reactor feed composition were previously described by Possemiers et al. (Possemiers, Verthe et al. 2004). In the comparison with of AX with inulin, two systems with identical environmental conditions (identical pH and temperature control) were run in parallel.
For the evaluation of the 2 prebiotics, the colon compartments of the SHIME reactors were first inoculated with an isolated fecal microbial community of a selected healthy volunteer. The SHIME reactor was operated under nominal conditions to stabilize the microbial community and let it adapt its metabolic activity and community composition to the conditions prevailing in the respective colon compartments. This stabilization period lasted for 3 weeks.
During the basal period, the SHIME reactor was operated under nominal conditions. Parameters such as short chain fatty acid (SCFA) production and ammonium production were determined 3 times/week. The results of these analyses served as the background values to be used to compare the measured parameters from the treatment period. The basal period lasted 2 weeks.
During the treatment period, the SHIME reactor was operated under nominal conditions, but with a modified diet containing a lower amount of starch in the medium compared to that of the basal period. In parallel, the ascending colon compartment of the first SHIME received inulin, whereas the second SHIME received AX. Both compounds were added in low doses of 1.5 g/d. SCFA and ammonium production were determined 3 times/week. This treatment period typically lasts for 3 weeks.
During the washout period, the SHIME reactor was operated under nominal conditions, with the initial diet. SCFA and ammonium production were determined 3 times/week. Analysis of these parameters allowed to assess whether possible changes from the treatment period normalize again to the levels of the basal period.
As acetate (A), propionate (P) and butyrate (B) are the main fatty acids produced by intestinal bacteria, the results are expressed as the ratio of each fatty acid to the sum of the 3 fatty acids.

[2] = test system: bifidobacteria; assay: DGGE fingerprint of the bifidobacterial community in the cecum of human-microbiota associated rats; assay type: in vivo, rat; details: 10% in diet, three weeks
Source text: FIG. 3 DGGE (Denaturing Gradient Gel Electrophoresis) fingerprint profiles of the community of bifidobacteria in the cecum of three groups of human-microbiota associated rats (n=8/group) treated for 3 weeks with a control diet, inulin (10%) or AX (10%). The profiles were obtained after amplification of the bifidobacterial community using group-specific PCR primers.
Three groups of eight rats with human associated microbiotia were used in the experiment: • Control • Inulin • AX
During three weeks animals were treated with either 10% inulin, AX or a control diet (=5% sugar+5% cornstarch) in order to compare the prebiotic effects of both oligosaccharides. At the end of the three weeks, the animals were euthanized.
In addition to this, the composition of the bifidobacterial community in the cecum was monitored by Denaturing Gradient Gel Electrophoresis (DGGE) (FIG. 3). […] Bifidobacterium longum is one of most important inhabitants in the human body. This bacterium is very helpful because it maintains a normal digestive tract, inhibits the growth of harmful bacteria, and also boosts the immune system (Reinert, Birgit. “Friendly tenants in the human gut: The genome of B. longum”. 2002. Genome News Network).

[3] = test system: intestinal bacteria; assay: Prebiotic Index (gut lumen) and Prebiotic Attachment Index (gut wall mucus) in TWINSHIME; assay type: cell-based, human; details: from day 23, TWINSHIME
Description: FIG. 4 Prebiotic Index (PI) and Prebiotic Attachment Index (PAI) before, during and after treatment with respectively inulin and AX. The X-axis indicates experiment days during the TWINSHIME run. Inulin or AX were administered to the TWINSHIME from day 2 until day 23.
In addition to the above-mentioned measurements, experiments were performed to quantify the attachment of intestinal bacteria to the mucus layer at the gut wall. As attachment to the gut wall is the first stage of interaction between bacteria and the human host (e.g. immunomodulation, pathogenesis), characterization of the microbial ecology at the site of the gut wall and assessment of changes in this community due to a prebiotic treatment is very important to evaluate the final health effects of a prebiotic treatment. Finally, the effect of the prebiotic treatment with inulin or AX on the composition of the microbial community in both the gut lumen and at the gut wall can be expressed quantitatively in specific indices.
The Prebiotic Index (PI) describes the increase in the gut lumen in beneficial bacteria, relative to harmful bacteria due to the prebiotic treatment. PI=(Bif/Total)+(Lac/Total)−(Ecol/Total)−(Clos/Total) […]
For both indices, an increase in the quantitative value is evaluated as positive, with the degree of increase as a parameter for success of the prebiotic treatment (FIG. 4).

inulin
prebiotic effect (relative increase in P and B compared to A) in the colon compartments ([1]; SHIME, 1.5 g/d): only minor effects were observed in one colon compartment | A ratio (A/(A + P + B)), Ascending colon ([1]; treatment period, 1.5 g/d): 0.45 | A ratio, Descending colon ([1]; treatment period, 1.5 g/d): 0.48 | A ratio, Transverse colon ([1]; treatment period, 1.5 g/d): 0.43 | B ratio, Ascending colon ([1]; treatment period, 1.5 g/d): 0.27 | B ratio, Descending colon ([1]; treatment period, 1.5 g/d): 0.24 | B ratio, Transverse colon ([1]; treatment period, 1.5 g/d): 0.26 | P ratio, Ascending colon ([1]; treatment period, 1.5 g/d): 0.29 | P ratio, Descending colon ([1]; treatment period, 1.5 g/d): 0.28 | P ratio, Transverse colon ([1]; treatment period, 1.5 g/d): 0.31 | A ratio (A/(A + P + B)), Ascending colon ([1]; wash-out period): 0.45 | A ratio, Descending colon ([1]; wash-out period): 0.53 | A ratio, Transverse colon ([1]; wash-out period): 0.44 | B ratio, Ascending colon ([1]; wash-out period): 0.20 | B ratio, Descending colon ([1]; wash-out period): 0.19 | B ratio, Transverse colon ([1]; wash-out period): 0.21 | P ratio, Ascending colon ([1]; wash-out period): 0.35 | P ratio, Descending colon ([1]; wash-out period): 0.28 | P ratio, Transverse colon ([1]; wash-out period): 0.35 | composition of the bifidobacterial community in the cecum (DGGE) [2]: little changes | Prebiotic Attachment Index (PAI) after stopping the administration [3]: returned back to baseline | Prebiotic Index (PI) after stopping the administration [3]: returned back to baseline

Reference: patent US8465788B2, “Arabinoxylans for modulating the barrier function of the intestinal surface” (BioActor B.V., priority 2008, dated 2013)
